Structures can show the parent of a compound that is named as a salt. Where two headings read alike, the source gives them in different places.
Assays:
TNFrII = test: Tumor necrosis factor assay: TNF Receptor II ELISA on supernatant of PMA-stimulated U-937 cells; details: Homo sapiens, U-937, read-out: TNFRII Release IC50 in micromolar
[1] = tested on: human monocytic line U-937; format: cell-based
recombinant human MMP-13 = recombinant human MMP-13 (Homo sapiens, UniProt P45452); test: biochemical; details: Inhibition Table B
recombinant human MMP-2 = target: T1, recombinant human MMP-2 (Homo sapiens, UniProt P08253); test: biochemical; details: Inhibition Table B
T1 sequence (P08253 110-660): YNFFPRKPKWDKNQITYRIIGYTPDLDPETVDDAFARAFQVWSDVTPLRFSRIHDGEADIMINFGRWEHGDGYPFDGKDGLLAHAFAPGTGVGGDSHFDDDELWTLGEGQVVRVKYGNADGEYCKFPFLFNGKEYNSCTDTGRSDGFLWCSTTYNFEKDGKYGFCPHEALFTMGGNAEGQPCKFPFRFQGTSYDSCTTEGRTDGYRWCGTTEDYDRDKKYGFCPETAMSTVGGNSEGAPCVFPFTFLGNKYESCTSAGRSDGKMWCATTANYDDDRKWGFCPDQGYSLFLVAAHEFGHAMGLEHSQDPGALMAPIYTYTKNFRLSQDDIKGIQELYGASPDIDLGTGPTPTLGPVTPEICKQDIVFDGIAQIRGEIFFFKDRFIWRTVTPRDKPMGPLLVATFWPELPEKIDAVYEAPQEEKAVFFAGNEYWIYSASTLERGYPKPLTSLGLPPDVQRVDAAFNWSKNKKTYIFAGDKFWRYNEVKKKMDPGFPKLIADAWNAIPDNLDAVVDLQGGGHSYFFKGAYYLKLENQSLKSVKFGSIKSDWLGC

recombinant human MMP-1 = target: T2, recombinant human MMP-1 (Homo sapiens, UniProt P03956); test: biochemical; details: Inhibition Table B
T2 construct: made in house; host or cells: transfected HT-1080 cells
T2 sequence (P03956 100-469): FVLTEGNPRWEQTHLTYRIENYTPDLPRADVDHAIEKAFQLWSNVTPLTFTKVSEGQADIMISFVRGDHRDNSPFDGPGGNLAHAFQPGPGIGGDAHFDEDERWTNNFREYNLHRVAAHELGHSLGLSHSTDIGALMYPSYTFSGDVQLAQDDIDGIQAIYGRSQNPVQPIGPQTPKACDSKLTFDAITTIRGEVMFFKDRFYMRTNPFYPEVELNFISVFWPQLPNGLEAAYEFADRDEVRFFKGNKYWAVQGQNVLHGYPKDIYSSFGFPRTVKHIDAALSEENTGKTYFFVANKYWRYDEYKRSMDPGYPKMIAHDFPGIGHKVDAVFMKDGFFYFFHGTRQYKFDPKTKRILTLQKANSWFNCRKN

SMILES	IC50 (TNFrII)	MTS Toxicity TD50 [1]	t1/2 (Rat Intraveneous, 20 mpk)	also measured
C#CCN1CCC(C(=O)NO)(S(=O)(=O)c2ccc(SC3CCCCC3)cc2)CC1.Cl [Example 13, 4-[[4-(cyclohexylthio)-phenyl]sulfonyl]-N-hydroxy-1-(2-propynyl)-4-piperidinecarboxamide]	> 100 µM	>100 µM	–	–
COCCN1CCC(C(=O)NO)(S(=O)(=O)c2ccc(Sc3ccccc3)cc2)CC1.Cl [Example 35, N-hydroxy-1-(2-methoxyethyl)-4-[[4-(phenylthio)phenyl]-sulfonyl]-4-piperidinecarboxamide, monohydrochloride]	> 100 µM	>100 µM	–	–
Cl.O=C(NO)C1(S(=O)(=O)c2ccc(Oc3ccccc3)cc2)CCNCC1 [Example 4, N-hydroxy-4-[(4-phenoxyphenyl)sulfonyl]-4-piperidinecarboxamide]	> 100 µM	>100 µM	–	–
Cc1cc(Oc2ccc(S(=O)(=O)C3(C(=O)NO)CCNCC3)cc2)ccc1Cl.Cl [Example 79, 4-[[4-(4-chloro-3-methylphenoxy)phenyl]sulfonyl]-N-hydroxy-4-piperidinecarboxamide, monohydrochloride]	–	–	1.82 h	IC50 (recombinant human MMP-13): 0.0017 µM; IC50 (recombinant human MMP-2): 0.001 µM; IC50 (recombinant human MMP-1): > 10 µM; AUC (0-∞) (Rat Intraveneous, 20 mpk): 6110 ng·h/mL; Blood Level @ 3 min (Rat Intraveneous, 20 mpk, 3 min): 13990 ng/mL; AUC (0-6 hr) (Rat Oral, 20 mpk): 70 ng·h/mL; BA (Rat Oral, 20 mpk): 1.1%; Cmax (Rat Oral, 20 mpk): 20 ng/mL; Blood Level @ 6 hr (Rat Oral, 20 mpk, 6 hr): 10 ng/mL
C#CCN1CCC(C(=O)NO)(S(=O)(=O)c2ccc(Oc3ccc4c(c3)OCO4)cc2)CC1.Cl [Example 10, 4-[[4-(1,3-benzodioxol-5-yloxy)phenyl]sulfonyl]-N-hydroxy-1-(2-propynyl)-4-piperidinecarboxamide]	> 100 µM	>100 µM	–	–
O=C(NO)C1(S(=O)(=O)c2ccc(Oc3ccc(C(F)(F)F)cc3)cc2)CCOCC1 [Example 379]	> 100 µM	80 µM	1.74 h	–
C#CCN1CCC(C(=O)NO)(S(=O)(=O)c2ccc(Oc3ccccc3)cc2)CC1.Cl [Example 6, N-hydroxy-4-[(4-phenoxyphenyl)sulfonyl]-1-(2-propynyl)-4-piperidinecarboxamide]	> 100 µM	>100 µM	–	–
Cl.O=C(NO)C1(S(=O)(=O)c2ccc(Sc3ccc(F)cc3)cc2)CCN(C2CC2)CC1 [Example 27, 1-cyclopropyl-4-[[4-[(4-fluorophenyl)thio]phenyl]sulfonyl]-N-hydroxy-4-piperidinecarboxamide]	> 100 µM	100 µM	–	–
O=C(NO)C1(S(=O)(=O)c2ccc(Sc3ccc(F)cc3)cc2)CCOCC1 [Example 103, 4-[[4-[(4-fluorophenyl)-thio]phenyl]sulfonyl]tetrahydro-N-hydroxy-2H-pyran-4-carboxamide]	–	–	1.10 h	–
CC(C)c1ccc(Oc2ccc(S(=O)(=O)C3(C(=O)NO)CCOCC3)cc2)cc1 [Example 125, tetrahydro-N-hydroxy-4-[[4-[4-(1-methylethyl)phenoxy]phenyl]-sulfonyl]-2H-pyran-4-carboxamide]	–	–	0.73 h	–
CC(=O)N1CCC(C(=O)NO)(S(=O)(=O)c2ccc(Oc3ccccc3)cc2)CC1 [Example 12, 1-acetyl-N-hydroxy-4-[(4-phenoxyphenyl)sulfonyl]-4-piperidinecarboxamide]	–	–	–	Blood Level @ 3 min (rat, in vivo, 20 mg/kg): 73540 ng/mL; BA (rat, in vivo, po, 20 mg/kg): 11.1%; Blood Level @ 6 hr (rat, in vivo, po, 20 mg/kg): 121 ng/mL
Cl.O=C(NO)C1(S(=O)(=O)c2ccc(Oc3ccc4c(c3)OCO4)cc2)CCN(C2CC2)CC1 [Example 421, 4-[[4-(1,3-benzodioxol-5-yloxy)phenyl]sulfonyl]-1-cyclopropyl-N-hydroxy-4-piperidinecarboxamide, monohydrochloride]	–	–	–	Blood Level @ 6 hr (rat, in vivo, po, 20 mg/kg): 206 ng/mL
Nc1ccc(Sc2ccc(S(=O)(=O)C3(C(=O)NO)CCSCC3)cc2)cc1 [Example 115, tetrahydro-N-hydroxy-4-[[4-[4-aminophenyl)thiophenoxy]phenyl]sulfonyl 2H-thionyran-4-carboxamide]	–	–	1.36 h	–
CCN1CCC(C(=O)NO)(S(=O)(=O)c2ccc(OCc3ccc(C(F)(F)F)cc3)cc2)CC1.Cl [Example 438, 1-ethyl-N-hydroxy-4-[(4-[[4-[trifluoromethyl)phenyl]methoxy]-phenyl]sulfonyl]-4-piperidine-carboxamide, monohydrochloride]	–	–	2.14 h	–
O=C(NO)C1(S(=O)(=O)c2ccc(Oc3ccc(Cl)cc3)cc2)CCOCC1 [Example 100, 4-[[4-(4-chlorophenoxy)-phenyl]sulfonyl]-tetrahydro-N-hydroxy-2H-pyran-4-carboxamide]	–	–	1.50 h	–
C#CCN1CCC(C(=O)NO)(S(=O)(=O)c2ccc(Oc3ccc(C)c(C)c3)cc2)CC1.Cl [Example 43, 4-[[4-(3,4-Dimethylphenoxyl)phenyl]sulfonyl]-N-hydroxy-1-(2-propynyl)-4-piperidinecarboxamide, monhydrochloride]	–	–	0.82 h	–
CC(=O)N1CCC(C(=O)NO)(S(=O)(=O)c2ccc(Sc3ccccc3)cc2)CC1.Cl [Example 36, 1-acetyl-N-hydroxy-4-[[4-(phenylthio)phenyl]sulfonyl]-4-piperidinecarboxamide, monohydrochloride]	–	–	0.65 h	–
Cl.O=C(NO)C1(S(=O)(=O)c2ccc(Oc3ccc(Cl)cc3)cc2)CCNCC1 [Example 93, 4-[[4-(4-chlorophenoxy)-phenyl]sulfonyl]-N-hydroxy-4-piperidinecarboxamide, monohydrochloride]	–	–	1.81 h	–
C#CCN1CCC(C(=O)NO)(S(=O)(=O)c2ccc(Sc3ccccc3)cc2)CC1.Cl [Example 9, N-hydroxy-4-([4-(phenylthio)phenyl]sulfonyl]-1-(2-propynyl)-4-piperidinecarboxamide]	> 100 µM	>100 µM	–	–
COCCN1CCC(C(=O)NO)(S(=O)(=O)c2ccc(Oc3ccc(C(F)(F)F)cc3)cc2)CC1.Cl [Example 418, N-hydroxy-1-(2-methoxyethyl)-4-[[4-[4-(trifluoromethyl)-phenoxy]phenyl]sulfonyl}-4-piperidinecarboxamide, monohydrochloride]	–	–	2.42 h	–
O=C(NO)C1(S(=O)(=O)c2ccc(Oc3ccc(C(F)(F)F)cc3)cc2)CCN(Cc2cccnc2)CC1 [Example 390, N-hydroxy-1-(3-pyridinylmethyl)-4-[[4-(4-trifluoromethyl)phenoxy]phenyl]-sulfonyl]-4-piperidinecarboxamide, dihydrochloride]	–	–	1.50 h	–
O=C(NO)C1(S(=O)(=O)c2ccc(Sc3ccccc3)cc2)CCOCC1 [Example 95, Tetrahydro-N-hydroxy-4-[[4-(phenylthio)phenyl]sulfonyl]-2H-pyran-4-carboxamide]	> 100 µM	>100 µM	1.06 h	–
Cl.O=C(NO)C1(S(=O)(=O)c2ccc(Oc3ccc(-n4cncn4)cc3)cc2)CCS(=O)(=O)CC1 [Example 53, Tetrahydro-N-hydroxy-4-[[4-[4-(1H-1,2,4-triazol-1-yl)phenoxy]-phenyl]-sulfonyl]-2H-thiopyran-4-carboxamide 1,1-dioxide, monohydrochloride]	–	–	0.97 h	Blood Level @ 6 hr (Rat Oral, 20 mpk, 6 hr): BLD
Cl.O=C(NO)C1(S(=O)(=O)c2ccc(Oc3ccc(-n4ccnc4)cc3)cc2)CCOCC1 [Example 99, tetrahydro-N-hydroxy-4-[[4-[4-(1H-imidazol-1-yl)phenoxy]phenyl]-sulfonyl]-2H-pyran-4-carboxamide, monohydrochloride]	–	–	0.68 h	–
O=C(NO)C1(S(=O)(=O)c2ccc(Oc3ccc(OC(F)(F)F)cc3)cc2)CCOCC1 [Example 69]	> 100 µM	100 µM	–	Blood Level @ 3 min (rat, in vivo, 20 mg/kg): 44000 ng/mL; BA (rat, in vivo, po, 20 mg/kg): 35.9%; Blood Level @ 6 hr (rat, in vivo, po, 20 mg/kg): 1172 ng/mL
C#CCN1CCC(C(=O)NO)(S(=O)(=O)c2ccc(Oc3ccc(C(C)C)cc3)cc2)CC1.Cl [Example 414, N-hydroxy-4-[[4-[4-(1-methylethyl)phenoxy]phenyl]sulfonyl]-1-(2-propynyl)-4-piperidinecarboxamide, monohdyrochloride]	–	–	0.73 h	–
